What all share (type): functional
Experiment [1] concerns Staphylococcus aureus. The experiment in a line: Antibacterial activity against Staphylococcus aureus ATCC 29213.
Experiment [2] has as its system Staphylococcus aureus. The experiment in a line: Antibacterial activity against multidrug resistant Staphylococcus aureus BAA-39.
Experiment [3] has as its system Staphylococcus aureus. The experiment in a line: Antibacterial activity against methicillin-resistant Staphylococcus aureus ATCC 33591.
The test system of experiment [4] is Staphylococcus epidermidis. Briefly: Antibacterial activity against Staphylococcus epidermidis ATCC 12228.
In experiment [5] the test system is Staphylococcus epidermidis. The experiment in a line: Antibacterial activity against methicillin-resistant Staphylococcus epidermidis ATCC 51625.
Another experiment concerns Streptococcus pneumoniae. The experiment in a line: Antibacterial activity against Streptococcus pneumoniae ATCC 6301.
The test system of a further experiment is Enterococcus faecalis. The experiment in a line: Antibacterial activity against vancomycin-resistant Enterococcus faecalis ATCC 51575.
Another experiment has as its system Enterococcus faecium. Briefly: Antibacterial activity against vancomycin-resistant Enterococcus faecium ATCC 700221.
In a further experiment the test system is Bacillus subtilis. The experiment in a line: Antibacterial activity against Bacillus subtilis ATCC 23857.
Another experiment relates to Bacillus cereus. The experiment in a line: Antibacterial activity against Bacillus cereus ATCC 11778.
For the next experiment, the system named is Bacteroides fragilis. The experiment in a line: Antibacterial activity against […] ATCC 23745.
The subject of a further experiment is Clostridium perfringens. Briefly: Antibacterial activity against Clostridium perfringens ATCC 10388.
The subject of another experiment is Candida albicans. Briefly: Antifungal activity against Candida albicans ATCC 90028.
Experiment [6] can be described thus: Ratio of MIC for Candida albicans ATCC 90028 to MIC for methicillin-resistant Staphylococcus aureus ATCC 33591.
The nature of experiment [7]: Ratio of MIC for Candida albicans ATCC 90028 to MIC for vancomycin-resistant Enterococcus faecium ATCC 700221.

MIC and Ratio data for nine compounds are collected here from ChEMBL document CHEMBL1153072, “Synthesis and structure-activity relationship of dicationic diaryl ethers as novel potent anti-MRSA and anti-VRE agents” (2009).

≈ marks a conversion by molar mass, not a printed value. Bounds are passed on as bounds.

For orientation: MIC means the smallest concentration in the dilution series that meets the test's criterion for growth inhibition. A lower MIC goes with greater potency. As for `CC(C)NC(=N)c1ccc2cc(-c3ccc(Oc4ccc(-c5cc6ccc(C(=N)NC(C)C)cc6[nH]5)cc4)cc3)[nH]c2c1`, the MIC was 0.12 mg/L (≈ 0.211 µM) with Staphylococcus aureus [1]; not above 0.06 mg/L with Staphylococcus aureus [2]; not above 0.06 mg/L with Staphylococcus aureus [3]; not above 0.06 mg/L in experiment [4]; not above 0.06 mg/L in experiment [5]; not above 0.06 mg/L with Streptococcus pneumoniae. In addition, the MIC with Enterococcus faecalis was 0.25 mg/L (≈ 0.44 µM); against Enterococcus faecium, not above 0.06 mg/L; in the experiment with Bacillus subtilis, not above 0.06 mg/L; in the experiment with Bacillus cereus, not above 0.06 mg/L; against Bacteroides fragilis, 0.125 mg/L (≈ 0.22 µM); in the experiment with Clostridium perfringens, 0.5 mg/L (≈ 0.879 µM). The same compound showed an MIC with Candida albicans of 0.5 mg/L (≈ 0.879 µM). Moreover, in experiment [6], the Ratio amounted to 8.
With `N=C(c1ccc2[nH]c(-c3ccc(Oc4ccc(-c5nc6cc(C(=N)N7CCSCC7)ccc6[nH]5)cc4)cc3)nc2c1)N1CCSCC1`, the MIC with Staphylococcus aureus [1] is 0.5 mg/L (≈ 0.759 µM); in the experiment on Staphylococcus aureus [2], 0.5 mg/L (≈ 0.759 µM); in the experiment with Staphylococcus aureus [3] it was 0.25 mg/L (≈ 0.379 µM); in [4] it was 0.12 mg/L (≈ 0.182 µM); in [5], 0.25 mg/L (≈ 0.379 µM); in the experiment with Streptococcus pneumoniae, 0.25 mg/L (≈ 0.379 µM). Further, the MIC was found to be 0.5 mg/L (≈ 0.759 µM) in the experiment on Enterococcus faecalis; 0.5 mg/L (≈ 0.759 µM) against Enterococcus faecium; 0.25 mg/L (≈ 0.379 µM) against Bacillus subtilis; 0.5 mg/L (≈ 0.759 µM) against Bacillus cereus; 4 mg/L (≈ 6.07 µM) against Bacteroides fragilis; 1 mg/L (≈ 1.52 µM) in the experiment on Clostridium perfringens. In the experiment with Candida albicans, the MIC is 16 mg/L (≈ 24.3 µM). The Ratio in [6] and in experiment [7] was 32 each time.
As to `N=C(c1ccc2[nH]c(-c3ccc(Oc4ccc(-c5nc6cc(C(=N)N7CCC(N8CCCC8)CC7)ccc6[nH]5)cc4)cc3)nc2c1)N1CCC(N2CCCC2)CC1`, the MIC is 8 mg/L (≈ 10.5 µM) in the experiment with Staphylococcus aureus [1]; 4 mg/L (≈ 5.26 µM) with Staphylococcus aureus [2]; 4 mg/L (≈ 5.26 µM) against Staphylococcus aureus [3]; 1 mg/L (≈ 1.31 µM) in experiment [4]; 1 mg/L (≈ 1.31 µM) in experiment [5]; more than 32 mg/L in the experiment on Streptococcus pneumoniae. Also, the MIC is 8 mg/L (≈ 10.5 µM) against Enterococcus faecalis; 2 mg/L (≈ 2.63 µM) in the experiment on Enterococcus faecium; 4 mg/L (≈ 5.26 µM) against Bacillus subtilis; 1 mg/L (≈ 1.31 µM) against Bacillus cereus; more than 32 mg/L in the experiment on Bacteroides fragilis; more than 32 mg/L in the experiment on Clostridium perfringens. In the experiment on Candida albicans, this compound yielded a minimum inhibitory concentration (MIC) of 16 mg/L (≈ 21 µM).
Regarding `COc1cc(Oc2ccc(-c3nc4cc(C(=N)NC(C)C)ccc4[nH]3)c(Cl)c2)ccc1-c1nc2cc(C(=N)NC(C)C)ccc2[nH]1`, the MIC is 0.25 mg/L (≈ 0.394 µM) in the experiment on Staphylococcus aureus [1]; 0.5 mg/L (≈ 0.787 µM) against Staphylococcus aureus [2]; 0.25 mg/L (≈ 0.394 µM) against Staphylococcus aureus [3]; not above 0.06 mg/L in [4]; not above 0.06 mg/L in experiment [5]; not above 0.06 mg/L against Streptococcus pneumoniae. In addition, the minimum inhibitory concentration (MIC) in the experiment on Enterococcus faecalis was 0.25 mg/L (≈ 0.394 µM); in the experiment with Enterococcus faecium, not above 0.06 mg/L; against Bacillus subtilis, not above 0.06 mg/L; against Bacillus cereus, 0.12 mg/L (≈ 0.189 µM); with Bacteroides fragilis, more than 32 mg/L; against Clostridium perfringens it was 0.25 mg/L (≈ 0.394 µM). In the experiment on Candida albicans, 4 mg/L (≈ 6.3 µM) was the least that counted as inhibitory (MIC).
Take `COc1cc(Oc2ccc(-c3nc4cc(C(=N)NC(C)C)ccc4[nH]3)cc2)ccc1-c1nc2cc(C(=N)NC(C)C)ccc2[nH]1`: the MIC in the experiment on Staphylococcus aureus [1] is 0.5 mg/L (≈ 0.832 µM); in the experiment on Staphylococcus aureus [2], 0.5 mg/L (≈ 0.832 µM); in the experiment on Staphylococcus aureus [3] it was 0.25 mg/L (≈ 0.416 µM); in experiment [4] it was not above 0.06 mg/L; in experiment [5], 0.12 mg/L (≈ 0.2 µM); in the experiment with Streptococcus pneumoniae, not above 0.06 mg/L. The minimal inhibitory concentration (MIC) against Enterococcus faecalis is 0.5 mg/L (≈ 0.832 µM); in the experiment on Enterococcus faecium, not above 0.06 mg/L; against Bacillus subtilis, not above 0.06 mg/L; with Bacillus cereus it was 0.12 mg/L (≈ 0.2 µM); in the experiment with Bacteroides fragilis it was more than 32 mg/L; in the experiment with Clostridium perfringens, 0.25 mg/L (≈ 0.416 µM). In the experiment with Candida albicans, this compound registered a minimum inhibitory concentration (MIC) of 2 mg/L (≈ 3.33 µM).
Turning to `CCC(CC)NC(=N)c1ccc2[nH]c(-c3ccc(Oc4ccc(-c5nc6cc(C(=N)NC(CC)CC)ccc6[nH]5)cc4)cc3)nc2c1`, the MIC was 0.25 mg/L (≈ 0.399 µM) in the experiment with Staphylococcus aureus [1]; 0.5 mg/L (≈ 0.798 µM) with Staphylococcus aureus [2]; 0.25 mg/L (≈ 0.399 µM) against Staphylococcus aureus [3]; 0.12 mg/L (≈ 0.191 µM) in [4]; 0.25 mg/L (≈ 0.399 µM) in experiment [5]; less than 0.06 mg/L against Streptococcus pneumoniae. The MIC was 0.5 mg/L (≈ 0.798 µM) against Enterococcus faecalis; less than 0.06 mg/L in the experiment with Enterococcus faecium; 0.12 mg/L (≈ 0.191 µM) with Bacillus subtilis; 0.5 mg/L (≈ 0.798 µM) against Bacillus cereus; 4 mg/L (≈ 6.38 µM) against Bacteroides fragilis; 0.5 mg/L (≈ 0.798 µM) with Clostridium perfringens. The compound also came in with an MIC with Candida albicans of 4 mg/L (≈ 6.38 µM).
For the compound `CC1(C)S[C@@H]2[C@H](NC(=O)Cc3ccccc3)C(=O)N2[C@H]1C(=O)O` [PENICILLIN G], the MIC against Staphylococcus aureus [1] was 1 mg/L (≈ 2.99 µM); in the experiment on Staphylococcus aureus [2], more than 32 mg/L; against Staphylococcus aureus [3], more than 32 mg/L; in [4], 32 mg/L (≈ 95.7 µM); in experiment [5], 32 mg/L (≈ 95.7 µM); in the experiment with Streptococcus pneumoniae, less than 0.06 mg/L. For the same compound, the MIC in the experiment on Enterococcus faecalis was 4 mg/L (≈ 12 µM); in the experiment with Enterococcus faecium, more than 32 mg/L; in the experiment on Bacillus subtilis, less than 0.06 mg/L; with Bacillus cereus, more than 4 mg/L; in the experiment with Bacteroides fragilis it was 4 mg/L (≈ 12 µM); in the experiment with Clostridium perfringens, less than 0.12 mg/L. Besides, the MIC against Candida albicans is more than 32 mg/L.
As to `N=C(c1ccc2[nH]c(-c3ccc(Oc4ccc(-c5nc6cc(C(=N)N7CCCCC7)ccc6[nH]5)cc4)cc3)nc2c1)N1CCCCC1`, the MIC in the experiment with Staphylococcus aureus [1] was 0.25 mg/L (≈ 0.401 µM); with Staphylococcus aureus [2] it was 0.5 mg/L (≈ 0.803 µM); against Staphylococcus aureus [3] it was 0.12 mg/L (≈ 0.193 µM); in [4], less than 0.06 mg/L; in experiment [5] it was 0.12 mg/L (≈ 0.193 µM); with Streptococcus pneumoniae it was less than 0.06 mg/L. Also, the MIC was 0.25 mg/L (≈ 0.401 µM) in the experiment on Enterococcus faecalis; 0.12 mg/L (≈ 0.193 µM) in the experiment on Enterococcus faecium; less than 0.06 mg/L in the experiment with Bacillus subtilis; 0.25 mg/L (≈ 0.401 µM) in the experiment on Bacillus cereus; 2 mg/L (≈ 3.21 µM) against Bacteroides fragilis; 0.25 mg/L (≈ 0.401 µM) against Clostridium perfringens. Moreover, the lowest concentration to inhibit growth against Candida albicans (MIC) was 8 mg/L (≈ 12.8 µM).
Regarding `CC(C)NC(=N)c1ccc2[nH]c(-c3ccc(Oc4ccc(-c5nc6cc(C(=N)NC(C)C)ccc6[nH]5)cn4)cc3)nc2c1`, the MIC was 1 mg/L (≈ 1.75 µM) in the experiment on Staphylococcus aureus [1]; 1 mg/L (≈ 1.75 µM) against Staphylococcus aureus [2]; 0.5 mg/L (≈ 0.875 µM) against Staphylococcus aureus [3]; 0.12 mg/L (≈ 0.21 µM) in experiment [4]; 0.12 mg/L (≈ 0.21 µM) in experiment [5]; 0.12 mg/L (≈ 0.21 µM) in the experiment with Streptococcus pneumoniae. Also, the MIC against Enterococcus faecalis is 0.25 mg/L (≈ 0.437 µM); with Enterococcus faecium it was not above 0.06 mg/L; in the experiment with Bacillus subtilis it was 0.25 mg/L (≈ 0.437 µM); in the experiment on Bacillus cereus, 0.12 mg/L (≈ 0.21 µM); in the experiment on Bacteroides fragilis, more than 32 mg/L; with Clostridium perfringens, 2 mg/L (≈ 3.5 µM). For the same compound, it took 2 mg/L (≈ 3.5 µM) to inhibit growth in the experiment on Candida albicans (MIC).
